Data as given in patent US20070275969A1, “NANOPARTICLES FOR ORAL ADMINISTRATION OF PHARMACEUTICAL AGENTS OF LOW SOLUBILITY” (priority 1995, published 2007).

Legend:
[1] = aqueous solubility of the active agent; type: physicochemical; conditions: pH 7.4
Procedure: (§1) Since then several types of HIV-1 protease inhibitors have become known. […] The latter effect is presently attributed to the extremely low aqueous solubility (8 mg/1000 ml at pH 7.4).

oral bioavailability = conditions: in vivo
Procedure: as §1

[2] = half-life in in-vivo pharmaceutical models (mouse); conditions: some in-vivo pharmaceutical models (mouse)
Procedure: as §1

COc1ccc(C[C@H](C[C@H](O)[C@H](Cc2ccccc2)NC(=O)OC(C)(C)C)C(=O)N[C@H](C(=O)N[C@@H](Cc2ccccc2)C(=O)N2CCOCC2)C(C)C)cc1 [HIV-1 protease inhibitor (A), 5(S)-tert.-Butoxycarbonyl-amino-4(S)-hydroxy-2(R)-4-methoxyphenylmethyl-6-phenyl-hexanoyl-(L)-Val-(L)-Phe-morpholin-4-ylamide]
aqueous solubility [1]: 8 mg/1000 ml | oral bioavailability (oral bioavailability): insufficient oral bioavailability | half-life [2]: relatively short half-life
